The values below come from patent US10961200B2, “Small molecule inhibitors of lactate dehydrogenase and methods of use thereof” (THE UNITED STATES OF AMERICA, AS REPRESENTED BY THE …, priority 2014, dated 2021).

Molecules are shown by their SMILES.

Usually IC50 stands for the concentration at which inhibition is half-maximal.

The target of the first assay is Human LDHA (Homo sapiens (Human), UniProt P00338). As to the kind of experiment: human LDHA primary biochemical assay (resazurin/diaphorase coupled, fluorescence). To be noted: LDHA inhibitory activity, activity level based on IC50 (Table 7). The source says:
Test compounds were placed in a Greiner Bio-One (Monroe, N.C.) 1536-well black solid bottom assay plate. 200 millimolar (mM) Tris HCl, pH 7.4, 100 micromolar […] EDTA and 0.01% TWEEN-20™, final concentration, was used as the assay buffer. The LDHA reagent was 2 nanomolar (nM) Human LDHA (Meridian Life Science, Inc., Memphis, Tenn.), final concentration, in assay buffer.
`NS(=O)(=O)c1ccc(Cc2c(-c3cccc(OCc4ccccc4)c3)nn(-c3nc(C(=O)O)cs3)c2CC2CC2)cc1` [Compound 339]: the IC50 is less than 100 nM.
In turn, `NS(=O)(=O)c1ccc(Cc2c(-c3cccc4cc(F)ccc34)nn(-c3nc(C(=O)O)cs3)c2O)cc1` [Compound 454, 2-(3-(6-fluoronaphthalen-1-(57%)yl)-5-hydroxy-4-(4-sulfamoylbenzyl)-1H-pyrazol-1-yl)thiazole-4-carboxylic acid] came in with an IC50 of 1000 to 57000 nM.
`COc1cc(-c2cc(-c3nn(-c4nc(C(=O)O)cs4)cc3Cc3ccc(S(N)(=O)=O)cc3)ccc2F)ccc1F` [Compound 518, 2-(3-(4′,6-difluoro-3′-methoxy-[1,1′-biphenyl]-3-yl)-4-(4-sulfamoylbenzyl)-1H-pyrazol-1-yl)thiazole-4-carboxylic acid] showed an IC50 of less than 100 nM.
Still for that read-out and setting: for `Cc1ccc(-c2cccc(-c3c(Cc4ccc([S+](N)(=O)[O-])c(F)c4)c(C4CC4)nn3-c3nc(C(=O)O)cs3)c2)cc1` [Compound 346] the value was 1000 to 57000 nM; for `Cc1cccc(-c2cccc(-c3nn(-c4nc(C(=O)O)cs4)cc3Cc3ccc(S(N)(=O)=O)cc3)c2)c1` [Compound 519, 2-(3-(3′-methyl-[1,1′-biphenyl]-3-yl)-4-(4-sulfamoylbenzyl)-1H-pyrazol-1-yl)thiazole-4-carboxylic acid], less than 100 nM; for `NS(=O)(=O)c1ccc(Cc2cn(-c3nc(C(=O)O)cs3)nc2-c2ccc(F)c(-c3cc(Cl)cc(Cl)c3)c2)cc1` [Compound 514, 2-(3-(3′,5′-dichloro-6-fluoro-[1,1′-biphenyl]-3-yl)-4-(4-sulfamoylbenzyl)-1H-pyrazol-1-yl)thiazole-4-carboxylic acid], 1000 to 57000 nM.
Same read-out and setting: for `Cc1ccc(-c2cc(-c3nn(-c4nc(C(=O)O)cs4)c(CC4CC4)c3Cc3ccc(S(N)(=O)=O)c(F)c3)ccc2F)cc1` [Compound 362] the value was less than 100 nM; for `COc1ccc(-c2cc(-c3nn(-c4nc(C(=O)O)cs4)cc3Cc3ccc(S(N)(=O)=O)cc3)ccc2C)cc1F` [Compound 494, 2-(3-(3′-fluoro-4′-methoxy-6-methyl-[1,1′-biphenyl]-3-yl)-4-(4-sulfamoylbenzyl)-1H-pyrazol-1-yl)thiazole-4-carboxylic acid], 100 to 1000 nM; for `Cc1ccc(-c2cc(-c3nn(-c4nc(C(=O)O)cs4)cc3Cc3ccc(S(N)(=O)=O)cc3)ccc2F)cc1F` [Compound 520, 2-(3-(3′,6-difluoro-4′-methyl-[1,1′-biphenyl]-3-yl)-4-(4-sulfamoylbenzyl)-1H-pyrazol-1-yl)thiazole-4-carboxylic acid], 100 to 1000 nM.
For the compound `Cc1ccc(-c2cccc(-c3c(Cc4ccc(S(N)(=O)=O)cc4F)c(C4CC4)nn3-c3nc(C(=O)O)cs3)c2)cc1` [Compound 354], the IC50 lay in the range of 1000 to 57000 nM.
On the same count and under the same terms, for `N[S+](=O)([O-])c1ccc(Cc2c(-c3ccc(F)c(-c4ccc(F)cc4)c3)nn(-c3nc(C(=O)O)cs3)c2CC2CC2)c(F)c1` [Compound 364] the value was less than 100 nM; for `NS(=O)(=O)c1ccc(Cc2c(C3CC3)nn(-c3nc(C(=O)O)cs3)c2-c2cccc(-c3cccc(F)c3)c2)c(F)c1` [Compound 358], 1000 to 57000 nM.

Still in this assay, the particulars now being: LDHA inhibitory activity, assay of Example 1; activity level classes.
As for `CCOC(=O)c1csc(-n2nc(CC3CC3)c(Cc3ccc(S(N)(=O)=O)c(F)c3)c2-c2ccc(F)c(-c3cccc(F)c3)c2)n1` [Compound 317], the 50% inhibitory concentration (IC50) was greater than 57000 nM.
In turn, `CCOC(=O)OC(C)OC(=O)c1csc(-n2nc(-c3ccc(F)c(F)c3)cc2O)n1` (centres unmarked) [Compound 105, 1-((ethoxycarbonyl)oxy)ethyl 2-(3-(3,4-difluorophenyl)-5-hydroxy-1H-pyrazol-1-yl)thiazole-4-carboxylate] displayed a concentration for half-maximal inhibition (IC50) greater than 57000 nM.
The same measure, in the same setting: for `NC(=O)c1ccc(Cc2c(-c3cccc(-c4ccccc4)c3)nn(-c3nc(C(=O)O)cs3)c2O)cc1` [Compound 67, 2-(3-([1,1′-biphenyl]-3-yl)-4-(4-carbamoylbenzyl)-5-hydroxy-1H-pyrazol-1-yl)thiazole-4-carboxylic acid] the value was greater than 57000 nM; for `CCOC(=O)c1cccc(-n2nc(-c3ccccc3)c(Cc3ccc(S(N)(=O)=O)cc3)c2N)c1` [Compound 129, ethyl 3-(5-amino-3-phenyl-4-(4-sulfamoylbenzyl)-1H-pyrazol-1-yl)benzoate], greater than 57000 nM; for `NS(=O)(=O)c1ccc(Cc2c(-c3ccc(F)c(-c4ccc(F)cc4)c3)nn(-c3nc(C(=O)O)cs3)c2C2CC2)c(F)c1` [Compound 254], less than 100 nM.
Still for that read-out and setting: for `COc1cccc(-c2cc(-c3nn(-c4nc(C(=O)O)cs4)c(C(F)(F)F)c3Cc3ccc(S(N)(=O)=O)cc3)ccc2F)c1` [Compound 242] the value was less than 100 nM; for `O=C(O)c1csc(-n2nc(-c3ccc(F)c(S(=O)(=O)NCc4ccccc4)c3)cc2O)n1` [Compound 110, 2-(3-(3-(N-benzylsulfamoyl)-4-fluorophenyl)-5-hydroxy-1H-pyrazol-1-yl)thiazole-4-carboxylic acid], greater than 57000 nM; for `O=C(O)c1csc(-n2cc(CNS(=O)(=O)N3CCNCC3)c(-c3ccccc3)n2)n1` [Compound 138, 2-(3-phenyl-4-((piperazine-1-sulfonamido)methyl)-1H-pyrazol-1-yl)thiazole-4-carboxylic acid], greater than 57000 nM.
Same read-out and setting: next, `COC(=O)c1cnc(-n2nc(-c3ccccc3)c(Cc3ccc(S(N)(=O)=O)cc3)c2N)nc1C(F)(F)F` [Compound 190, methyl 2-(5-amino-3-phenyl-4-(4-sulfamoylbenzyl)-1H-pyrazol-1-yl)-4-(trifluoromethyl)pyrimidine-5-carboxylate]: greater than 57000 nM; `CCOC(=O)c1csc(-n2nc(-c3cccc(-c4ccccc4)c3)c(Cc3ccc(S(N)(=O)=O)cc3)c2C2CC2)n1` [Compound 181, ethyl 2-(3-([1,1′-biphenyl]-3-yl)-5-cyclopropyl-4-(4-sulfamoylbenzyl)-1H-pyrazol-1-yl)thiazole-4-carboxylate]: greater than 57000 nM.
The compound `Cc1ccc(-c2cccc(-c3nn(-c4nc(C(=O)O)cs4)c(C(F)(F)F)c3Cc3ccc(S(N)(=O)=O)cc3)c2)cc1` [Compound 311] showed a half-inhibitory concentration (IC50) of less than 100 nM.
`Cc1ccc(-c2cc(-c3nn(-c4nc(C(=O)O)cs4)c(C4CC4)c3Cc3ccc(S(N)(=O)=O)cc3F)ccc2F)cc1` [Compound 253] yielded an IC50 of less than 100 nM.
Take `Nc1c(Cc2ccc(S(N)(=O)=O)cc2)c(-c2ccc(F)c(F)c2)nn1-c1nc(C(=O)O)cs1` [Compound 38, 2-(5-amino-3-(3,4-difluorophenyl)-4-(4-sulfamoylbenzyl)-1H-pyrazol-1-yl)thiazole-4-carboxylic acid]: the half-maximal inhibitory concentration (IC50) is less than 100 nM.
On the same count and under the same terms, next, `NS(=O)(=O)c1ccc(Cc2c(-c3cccc4cc(F)ccc34)nn(-c3nc(C(=O)O)cs3)c2O)cc1` [Compound 89, 2-(3-(6-fluoronaphthalen-1-yl)-5-hydroxy-4-(4-sulfamoylbenzyl)-1H-pyrazol-1-yl)thiazole-4-carboxylic acid]: greater than 57000 nM; `CC#Cc1cccc(-c2nn(-c3nc(C(=O)O)cs3)c(CC3CC3)c2Cc2ccc(S(N)(=O)=O)c(F)c2)c1` [Compound 270]: less than 100 nM.
Compound `Nc1c(Cc2ccc(S(N)(=O)=O)cc2)c(-c2ccccc2)nn1-c1nccc(O)n1` [Compound 152, 4-((5-amino-1-(4-hydroxypyrimidin-2-yl)-3-phenyl-1H-pyrazol-4-yl)methyl)benzenesulfonamide] showed an IC50 greater than 57000 nM.
In turn, `O=C(O)c1csc(-n2cc(-c3ccc(F)c(F)c3)c3cccnc32)n1` [Compound 23, 2-(3-(3,4-difluorophenyl)-1H-pyrrolo[2,3-b]pyridin-1-yl)thiazole-4-carboxylic acid] gave an IC50 greater than 57000 nM.
Same read-out and setting: for `NS(=O)(=O)c1ccc(Cc2c(-c3ccc(F)c(-c4ccc(F)cc4)c3)nn(-c3nc(C(=O)O)cs3)c2C2CC2)cc1F` [Compound 250] the value was less than 100 nM.

The assay is the same for the next values; noted with them: read-out: Inhibitory activity IC50.
In the case of `N[S+](=O)([O-])c1ccc(Cc2c(CC3CC3)nn(-c3nc(C(=O)O)cs3)c2-c2ccc(F)c(-c3ccc(F)cc3)c2)cc1` [Compound 292], the IC50 fell in the range of 1000 to 57000 nM.
On the same count and under the same terms, for `Cc1cccc(C(=O)n2nc(-c3ccccc3)c(Cc3ccc(S(N)(=O)=O)cc3)c2N)c1` [Compound 84, 4-((5-amino-1-(3-methylbenzoyl)-3-phenyl-1H-pyrazol-4-yl)methyl)benzenesulfonamide] the value was 1000 to 57000 nM; for `Nc1c(Cc2ccc(S(N)(=O)=O)cc2)c(-c2ccccc2)nn1C(=O)c1cccc(F)c1` [Compound 85, 4-((5-amino-1-(3-fluorobenzoyl)-3-phenyl-1H-pyrazol-4-yl)methyl)benzenesulfonamide], 1000 to 57000 nM; for `NS(=O)(=O)c1ccc(Oc2c(C3CC3)nn(-c3nc(C(=O)O)cs3)c2-c2ccccc2)cc1` [Compound 165], 1000 to 57000 nM.
For the compound `NC(=O)c1csc(-n2cc(Cc3ccc(S(N)(=O)=O)cc3)c(-c3ccccc3)n2)n1` [Compound 79, 2-(3-phenyl-4-(4-sulfamoylbenzyl)-1H-pyrazol-1-yl)thiazole-4-carboxamide], the IC50 is 1000 to 57000 nM.
Regarding `CCOC(=O)c1csc(-n2nc(-c3ccccc3)c(Cc3ccc(S(N)(=O)=O)cc3)c2N)n1` [Compound 58, ethyl 2-(5-amino-3-phenyl-4-(4-sulfamoylbenzyl)-1H-pyrazol-1-yl)thiazole-4-carboxylate], the half-maximal inhibitory concentration (IC50) lay in the range of 1000 to 57000 nM.
In the case of `NS(=O)(=O)c1ccc(Cc2c(C3CC3)nn(-c3nc(C(=O)O)cs3)c2-c2cccc(-c3ccccc3)c2)c(F)c1` [Compound 182], the IC50 is 1000 to 57000 nM.
Regarding `Cc1ccc(-c2cc(-c3c(Cc4ccc(S(N)(=O)=O)cc4F)c(CC4CC4)nn3-c3nc(C(=O)O)cs3)ccc2F)s1` [Compound 226, 2-(3-(cyclopropylmethyl)-5-(4-fluoro-3-(5-methylthiophen-2-yl)phenyl)-4-(2-fluoro-4-sulfamoylbenzyl)-1H-pyrazol-1-yl)thiazole-4-carboxylic acid], the IC50 is greater than 57000 nM.
